Common to all, as to assay type: physicochemical
One series is described as follows: solubility.
The nature of series [1]: intrinsic dissolution rate. Conditions: pH 2.0 buffer.
A short description of series [2]: moisture sorption/desorption measurements. To be noted: based on moisture sorption/desorption measurements.
Series [3] can be described thus: physical and chemical stability under stress conditions.

Here are results for 1 compound from patent US20140094486A1, “SOLID STATE FORMS OF HIV INHIBITOR” (Gilead Sciences, Inc., priority 2011, published 2014).

One may read the solubility as the concentration that dissolves in the medium under given conditions. A high value points to much dissolved substance.

The structures appear in SMILES notation. Where only a bound is given, the exact number is not on record here.

As for `Cc1nc2ccccc2c(-c2ccc3c4c(ccnc24)CCO3)c1[C@H](OC(C)(C)C)C(=O)O` (atropisomer, axis not shown) [Type A], the solubility in “solubility” (pH 2, simulated gastric fluid) is over 24 mg/mL; in “solubility” (pH 4.5, aqueous buffer), over 24 mg/mL; in “solubility” (pH 6.8, aqueous buffer), over 24 mg/mL. For the same compound, in series [1], the intrinsic dissolution rate came to 4528 μg/[cm^2×min]. In addition, the hygroscopicity entry in series [2] was “non-hygroscopic”. Moreover, in series [3], the “physical and chemical stability” value is “exhibits physical and chemical stability”.
